{"source": "ChEMBL document CHEMBL1201862", "about": "“PubChem BioAssay data set” (2004)", "assay_in_all_cases": "NCI anticancer screen, dose series, 48 h", "key": {"SN12C": {"test_system": "SN12C"}, "A549": {"test_system": "A549"}, "M14": {"test_system": "M14"}, "HOP-62": {"test_system": "HOP-62"}, "DMS-114": {"test_system": "DMS-114"}, "EKVX": {"test_system": "EKVX"}, "UACC-62": {"test_system": "UACC-62"}, "IGROV-1": {"test_system": "IGROV-1"}, "COLO 205": {"test_system": "COLO 205"}, "K562": {"test_system": "K562"}, "OVCAR-8": {"test_system": "OVCAR-8"}, "HL-60": {"test_system": "HL-60"}, "HT-29": {"test_system": "HT-29"}, "SW-620": {"test_system": "SW-620"}, "HCC 2998": {"test_system": "HCC 2998"}, "SNB-19": {"test_system": "SNB-19"}, "LOX IMVI": {"test_system": "LOX IMVI"}, "HCT-15": {"test_system": "HCT-15"}, "ACHN": {"test_system": "ACHN"}, "HCT-116": {"test_system": "HCT-116"}, "HOP-18": {"test_system": "HOP-18"}, "UACC-257": {"test_system": "UACC-257"}, "NCI-H522": {"test_system": "NCI-H522"}, "SK-OV-3": {"test_system": "SK-OV-3"}, "CCRF-CEM": {"test_system": "CCRF-CEM"}, "SF-268": {"test_system": "SF-268"}, "SK-MEL-5": {"test_system": "SK-MEL-5"}, "MOLT-4": {"test_system": "MOLT-4"}, "SF-539": {"test_system": "SF-539"}, "OVCAR-5": {"test_system": "OVCAR-5"}, "NCI-H23": {"test_system": "NCI-H23"}, "CAKI-1": {"test_system": "CAKI-1"}, "Malme-3M": {"test_system": "Malme-3M"}, "RPMI-8226": {"test_system": "RPMI-8226"}, "SK-MEL-2": {"test_system": "SK-MEL-2"}, "LXFL 529": {"test_system": "LXFL 529"}, "RXF 393": {"test_system": "RXF 393"}, "U-251": {"test_system": "U-251"}, "SR": {"test_system": "SR"}, "UO-31": {"test_system": "UO-31"}, "SF-295": {"test_system": "SF-295"}, "DLD-1": {"test_system": "DLD-1"}, "HOP-92": {"test_system": "HOP-92"}, "NCI-H226": {"test_system": "NCI-H226"}, "NCI-H460": {"test_system": "NCI-H460"}, "TK-10": {"test_system": "TK-10"}, "M19-MEL": {"test_system": "M19-MEL"}, "786-0": {"test_system": "786-0"}, "KM12": {"test_system": "KM12"}, "OVCAR-4": {"test_system": "OVCAR-4"}, "DMS-273": {"test_system": "DMS-273"}, "KM-20L2": {"test_system": "KM-20L2"}, "OVCAR-3": {"test_system": "OVCAR-3"}, "SNB-78": {"test_system": "SNB-78"}, "A498": {"test_system": "A498"}, "SK-MEL-28": {"test_system": "SK-MEL-28"}, "SNB-75": {"test_system": "SNB-75"}}, "note": "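Method: 48-hour compound exposure of cells in 96-well plates, five concentrations, linear interpolation of endpoints. Here, GI50 denotes the concentration required for 50% inhibition of growth.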 The source made the active and inactive calls. Cut-off read from the data, not from the text of the source: active = GI50 up to about 1.1 µM and inactive = higher.", "data": [{"smiles": "N=C1OC(c2ccc3c(c2)OCO3)C(NNS(=O)(=O)c2ccccc2)=C1O", "note": "(configuration not stated)", "values": [{"measurement": "GI50", "setting": "SN12C", "result": "> 100 µM (inactive)"}, {"measurement": "GI50", "setting": "A549", "result": "> 100 µM (inactive)"}, {"measurement": "GI50", "setting": "M14", "result": "46.6 µM (inactive)"}, {"measurement": "GI50", "setting": "HOP-62", "result": "> 100 µM (inactive)"}, {"measurement": "GI50", "setting": "DMS-114", "result": "> 100 µM (inactive)"}, {"measurement": "GI50", "setting": "EKVX", "result": "> 100 µM (inactive)"}, {"measurement": "GI50", "setting": "UACC-62", "result": "> 100 µM (inactive)"}, {"measurement": "GI50", "setting": "IGROV-1", "result": "> 100 µM (inactive)"}, {"measurement": "GI50", "setting": "COLO 205", "result": "> 100 µM (inactive)"}, {"measurement": "GI50", "setting": "K562", "result": "> 100 µM (inactive)"}, {"measurement": "GI50", "setting": "OVCAR-8", "result": "> 100 µM (inactive)"}, {"measurement": "GI50", "setting": "HL-60", "result": "> 100 µM (inactive)"}, {"measurement": "GI50", "setting": "HT-29", "result": "> 100 µM (inactive)"}, {"measurement": "GI50", "setting": "SW-620", "result": "> 100 µM (inactive)"}, {"measurement": "GI50", "setting": "HCC 2998", "result": "> 100 µM (inactive)"}, {"measurement": "GI50", "setting": "SNB-19", "result": "> 100 µM (inactive)"}, {"measurement": "GI50", "setting": "LOX IMVI", "result": "> 100 µM (inactive)"}, {"measurement": "GI50", "setting": "HCT-15", "result": "> 100", "unit": "µM"}, {"measurement": "GI50", "setting": "ACHN", "result": "> 100 µM (inactive)"}, {"measurement": "GI50", "setting": "HCT-116", "result": "> 100 µM (inactive)"}, {"measurement": "GI50", "setting": "HOP-18", "result": "> 100 µM (inactive)"}, {"measurement": "GI50", "setting": "UACC-257", "result": "> 100 µM (inactive)"}, {"measurement": "GI50", "setting": "NCI-H522", "result": "48.5 µM (inactive)"}, {"measurement": "GI50", "setting": "SK-OV-3", "result": "> 100 µM (inactive)"}, {"measurement": "GI50", "setting": "CCRF-CEM", "result": "44.6 µM (inactive)"}, {"measurement": "GI50", "setting": "SF-268", "result": "> 100 µM (inactive)"}, {"measurement": "GI50", "setting": "SK-MEL-5", "result": "38.1 µM (inactive)"}, {"measurement": "GI50", "setting": "MOLT-4", "result": "> 100 µM (inactive)"}, {"measurement": "GI50", "setting": "SF-539", "result": "> 100 µM (inactive)"}, {"measurement": "GI50", "setting": "OVCAR-5", "result": "> 100 µM (inactive)"}, {"measurement": "GI50", "setting": "NCI-H23", "result": "52.5 µM (inactive)"}, {"measurement": "GI50", "setting": "CAKI-1", "result": "> 100 µM (inactive)"}, {"measurement": "GI50", "setting": "Malme-3M", "result": "> 100 µM (inactive)"}, {"measurement": "GI50", "setting": "RPMI-8226", "result": "87.1 µM (inactive)"}, {"measurement": "GI50", "setting": "SK-MEL-2", "result": "68.2 µM (inactive)"}, {"measurement": "GI50", "setting": "LXFL 529", "result": "58.2 µM (inactive)"}, {"measurement": "GI50", "setting": "RXF 393", "result": "> 100 µM (inactive)"}, {"measurement": "GI50", "setting": "U-251", "result": "54.7 µM (inactive)"}, {"measurement": "GI50", "setting": "SR", "result": "61.2 µM (inactive)"}, {"measurement": "GI50", "setting": "UO-31", "result": "> 100 µM (inactive)"}, {"measurement": "GI50", "setting": "SF-295", "result": "> 100 µM (inactive)"}, {"measurement": "GI50", "setting": "DLD-1", "result": "> 100 µM (inactive)"}, {"measurement": "GI50", "setting": "HOP-92", "result": "> 100 µM (inactive)"}, {"measurement": "GI50", "setting": "NCI-H226", "result": "> 100 µM (inactive)"}, {"measurement": "GI50", "setting": "NCI-H460", "result": "> 100 µM (inactive)"}, {"measurement": "GI50", "setting": "TK-10", "result": "> 100 µM (inactive)"}, {"measurement": "GI50", "setting": "M19-MEL", "result": "30.4 µM (inactive)"}, {"measurement": "GI50", "setting": "786-0", "result": "> 100 µM (inactive)"}, {"measurement": "GI50", "setting": "KM12", "result": "> 100 µM (inactive)"}, {"measurement": "GI50", "setting": "OVCAR-4", "result": "> 100 µM (inactive)"}, {"measurement": "GI50", "setting": "DMS-273", "result": "> 100 µM (inactive)"}, {"measurement": "GI50", "setting": "KM-20L2", "result": "> 100 µM (inactive)"}, {"measurement": "GI50", "setting": "OVCAR-3", "result": "> 100 µM (inactive)"}, {"measurement": "GI50", "setting": "SNB-78", "result": "> 100 µM (inactive)"}, {"measurement": "GI50", "setting": "A498", "result": "> 100 µM (inactive)"}, {"measurement": "GI50", "setting": "SK-MEL-28", "result": "> 100 µM (inactive)"}, {"measurement": "GI50", "setting": "SNB-75", "result": "> 100 µM (inactive)"}]}]}
